Source: patent US20250188422A1, “INDUCED TOTIPOTENT POTENTIAL STEM CELLS, METHODS OF MAKING AND USING” (Peking University, priority 2022, published 2025)

Assays:
[1] = system: Zscan4-Emerald GFP and MERVL-tdTomato reporter expression in mouse EPS cells; assay: Screen with Zscan4-Emerald GFP and MERVL-tdTomato reporter EPS cells; format: cell-based; details: for effect with CD1530 in inducing totipotent markers: combined with CD1530, EPS reporter cells, day 3
Method: Cells were gently digested into single cells using 0.05% trypsin-EDTA. Suspensions were filtered through a 40 µm cell strainer. Then, the samples were analyzed on CytoFLEX (Beckman Coulter). Data analysis was performed using CytExpert software.
To identify small molecules that can induce totipotent features in mouse EPS cells, we used cell lines carrying a MERVL-TdTomato or a Zscan4-Emerald GFP reporter. As the positive control, Dux overexpression was performed in these reporter cells (FIG. 6a-c). N2B27 medium was used for screening and Wnt signaling agonist CHIR 99021 was also added for promoting cell proliferation. In the primary screen, we focused on identifying small molecules that can increase the percentage of Zscan4-Emerald GFP+ cells, and identified more than 50 primary hits. These candidates were further evaluated using MERVL-tdTomato reporter cells and small molecules that can also induce MERVL-tdTomato were selected out for further determining their optimal dosage in activating Zscan4-Emerald and MERVL-tdTomato expression without inducing significant toxicity. […] Therefore, CHIR 99021 was included in the chemical cocktail.

TPS cells = assay: Culture of TPS cells without CHIR 99021; format: cell-based, mouse
Method: All cell lines were cultured under 20% 02 and 5% C02 at 37° C. Mouse TPS cells were cultured in 4S medium contained N2B27 basal medium [50% DMEM/F12 (Gibco, 11330-032), 50% Neurobasal (Gibco, 21103-049), 0.5% N2 supplement (Gibco, 17502-048), 1% B27 supplement (Gibco, 12587-010), 1% GlutaMAX (Gibco, 35050-061), 1% nonessential amino acids (Gibco, 11140-050)] which promoted cell proliferation, or 1640 basal medium [RPMI Medium 1640 basic (Gibco, 22400-089), 0.5% N2 supplement (Gibco, 17502-048), 1% B27 supplement (Gibco, 12587-010), 1% GlutaMAX (Gibco, 35050-061), 1% nonessential amino acids (Gibco, 11140-050)] which enhanced totipotent molecular features, supplemented with 5% knockout serum replacement (Gibco, 10828-028), 0.2% sodium pyruvate (Gibco, 11360-070), 0.14% sodium DL-lactate solution (Sigma, L7900) and 0.1% Chemically Defined Lipid Concentrate (Gibco, 11905-031), VPA (50 μM; Selleck, S3944), CHIR-99021 (3 μM; Selleck, S1263), EPZ004777 (1 μM, Selleck, S7353) and CD1530 ([…]-0.5 μM; Tocris, 2554). Mouse TPS cells were cultured on mitomycin C inactivated mouse embryonic fibroblast cells (feeders, 3*10^4 cells per cm^2). The culture medium was changed every day. TPS cells were passaged every three days with 0.05% trypsin-EDTA (Gibco, 25300-062) and seeded at a split ratio ranging from 1:3 to 1:10. To generate TPS cells, EPS cells or ES cells were dissociated and cultured on feeders in 4S medium for the first three passages, EPS cells or ES cells need to seed at a lower split ratio 1:3 to improve cell viability. After five passages, TPS cells were generated for further experiments.
The total RNAs were isolated using the Direct-zol RNA Kits (ZYMO Research, R2052). RNA was converted to cDNA using TransScript FirstStrand cDNA Synthesis SuperMix (TransGen Biotech, AT311). Quantitative PCR analysis was conducted using the KAPA SYBR FAST qPCR Kit (KAPA Biosystems, KK4601) with the Bio RAD CFX Connect Real-Time System. The data were analyzed using the delta-delta CT method.
Next, we sought to analyze the role of CHIR 99021 in the induction and maintenance of TPS cells. […]

[2] = system: EPS cells during TPS conversion; assay: Cell proliferation during conversion of EPS cells to TPS cells; format: cell-based, mouse; details: CHIR 99021 omitted from the cocktail during the conversion
Method: Mouse EPS cells and ES cells cultured in N2B27-LCDM medium or N2B27-2i/LIF medium for two days were used for TPS generation. Mouse EPS cells and ES cells were washed with DMEM/F12, then 0.05% trypsin-EDTA (Gibco, 25300-062) was added and incubated for 3 min, then DMEM (Gibco, 11965092) supplemented with 10% FBS (Hyclone, SH30070.03) was added. The cells were pipetted up and down several times into single cells. Cells were centrifuged and re-suspended in 4S medium contained N2B27 which promoted cell proliferation or RPMI Medium 1640 basic (Gibco, 22400-089) which enhanced totipotent molecular features supplemented with 5% knockout serum replacement (Gibco, 10828-028), 0.2% sodium pyruvate (Gibco, 11360-070), 0.14% sodium DL-lactate solution (Sigma, L7900) and 0.1% Chemically Defined Lipid Concentrate (Gibco, 11905-031), VPA (50 μM; Selleck, S3944), CHIR-99021, EPZ004777 (1 μM, Selleck, S7353) and CD1530 ([…]-0.5 μM; Tocris, 2554). […]
To identify small molecules that can induce totipotent features in mouse EPS cells, we used cell lines carrying a MERVL-TdTomato or a Zscan4-Emerald GFP reporter. […] These candidates were further evaluated using MERVL-tdTomato reporter cells and small molecules that can also induce MERVL-tdTomato were selected out for further determining their optimal dosage in activating Zscan4-Emerald and MERVL-tdTomato expression without inducing significant toxicity. […]

[3] = system: 8-cell ICR diploid mouse embryos; assay: Chimeric assay of single-cell microinjection into 8-cell embryos; format: in vivo; details: omission of CHIR 99021
Method: Cells were digested by 0.05% trypsin-EDTA, and the digested cells were filtered through a 40 µm cell strainer, centrifuged at 1,200-1,500 rpm for 3 min at room temperature. Supernatant were removed and cells were suspended using culture medium with the addition of Y-27632 (10 μM; Tocris, 1254), and placed on the ice before injection. After being placed on ice, the digested cells should be injected in 1 h, otherwise, another batch of cells were digested for the remaining injections.
Single cells were microinjected into 8-cell ICR diploid mouse embryos. The injected embryos were cultured in the culture medium with Y-27632 (10 μM; Tocris, 1254) for the first 4 h. For the generation of chimeric blastocysts, the embryos were transferred into the KSOM medium (Merck, MR-106-D). For the generation of single-cell derived in vivo chimeric conceptuses, chimeric embryos were cultured into KSOM medium with Y-27632 (10 μM; Tocris, 1254) addition in a humidified incubator under 5% CO2 at 37° C. overnight. Injected embryos were transferred to uterine horns of 0.5 post coitum pseudo-pregnant females. Fetal tissues, yolk sacs, placentas were dissected from conceptuses at E7.5, E10.5, E13.5 or E17.5 developmental stages.

Compound: O=C(O)c1ccc(-c2ccc3cc(O)c(C45CC6CC(CC(C6)C4)C5)cc3c2)cc1 [CD1530]
- inducing Zscan4-GFP and MERVL-tdTomato expression ([1]; EPS reporter cells, N2B27 medium with CHIR 99021, after titration, compared with other screening hits): most effective

Compound: Cc1c[nH]c(-c2cnc(NCCNc3ccc(C#N)cn3)nc2-c2ccc(Cl)cc2Cl)n1 [CHIR 99021]
- requirement for the proliferation of TPS cells (TPS cells; omission of CHIR 99021, after further passaging): not required
- expression of totipotent marker genes in TPS cells (TPS cells; omission of CHIR 99021, after long-term culturing): not affected
- proliferation of TPS cells (TPS cells; omission of CHIR 99021, first few passages (about 3-5 passages)): reduced proliferation
- cell proliferation [2]: greatly reduced
- in vivo chimeric of TPS cells [3]: greatly reduce

Compound: CC(C)N(CCCNC(=O)Nc1ccc(C(C)(C)C)cc1)C[C@H]1O[C@@H](n2ccc3c(N)ncnc32)[C@H](O)[C@@H]1O [EPZ004777]
- effect with CD1530 in inducing totipotent markers [1]: synergistic effect

Compound: CCCC(CCC)C(=O)O [VPA]
- effect with CD1530 in inducing totipotent markers [1]: synergistic effect
